Assay results as given in patent publication US20160238617A1, “[…] AND METHODS […] TO INNER EAR DISORDERS” (THE UNIVERSITY OF CONNECTICUT, priority 2015, published 2016).

Key:
prestin [1] = assay: serum prestin concentration in mice treated with cisplatin; assay type: in vivo; details: same time course up to two weeks after exposure
Experimental: Although the hearing threshold measured by ABR was unaffected, prestin levels continued to change after exposure to cisplatin.
The ototoxin drug cisplatin (a commonly used chemotherapeutic agent) was administered and then functional assessment of hearing and measurement of prestin were carried out at several intervals up to two weeks after exposure. Hearing was assessed using a standard testing protocol called click-evoked auditory brainstem response (ABR) (FIG. 13).

prestin [2] = assay: serum prestin level in cisplatin-treated rats; assay type: in vivo; details: 72 hours after treatment, compared to controls
Source text: Rats are more vulnerable to ototoxic damage than mice.

N.N.[Cl][Pt][Cl] [cisplatin]
serum concentrations of prestin (prestin [1]): increasing | serum prestin level (prestin [2]): elevated
